ChEMBL document CHEMBL4715932, “Positional Isomers of Biphenyl Antimicrobial Peptidomimetic Amphiphiles” (ACS Med Chem Lett, 2021)
≈ marks a conversion by molar mass, not a printed value.

Key:
Staphylococcus aureus [1] = assay: Antibacterial activity against Staphylococcus aureus ATCC 29213 assessed as inhibition of growth visually by CLSI method; type: functional
[2] = Hemolytic activity in human RBC assessed as hemolysis incubated for 1 hr by CO-ADD method; type: ADME, cell-based, Erythrocyte; settings: red blood cells (erythrocytes)
Staphylococcus aureus [3] = assay: Antibacterial activity against methicillin-resistant Staphylococcus aureus NCTC 10442 assessed as inhibition of growth visually by CLSI method; type: functional
Staphylococcus aureus [4] = assay: Antibacterial activity against vancomycin intermediate susceptibility Staphylococcus aureus Mu50 assessed as inhibition of growth visually by CLSI method; type: functional
Enterococcus faecalis [5] = assay: Antibacterial activity against Enterococcus faecalis ATCC 29212 assessed as inhibition of growth visually by CLSI method; type: functional
Enterococcus faecalis [6] = assay: Antibacterial activity against vancomycin-resistant Enterococcus faecalis ATCC 51299 assessed as inhibition of growth visually by CLSI method; type: functional
Streptococcus pneumoniae = assay: Antibacterial activity against Streptococcus pneumoniae ATCC 49619 assessed as inhibition of growth visually by CLSI method; type: functional
Escherichia coli [7] = assay: Antibacterial activity against Escherichia coli ATCC 10418 assessed as inhibition of growth visually by CLSI method; type: functional
Clostridioides difficile [8] = assay: Antibacterial activity against Clostridioides difficile ATCC 700057 assessed as inhibition of growth visually preincubated for 2 to 4 hrs measured after 48 hrs by CLSI method; type: functional; settings: time hrs <=52
Clostridioides difficile [9] = assay: Antibacterial activity against Clostridioides difficile NSW 132 (RT027) assessed as inhibition of growth visually preincubated for 2 to 4 hrs measured after 48 hrs by CLSI method; type: functional; settings: time hrs <=52
Staphylococcus aureus [10] = assay: Antimicrobial activity against methicillin resistant Staphylococcus aureus ATCC 43300 assessed as growth inhibition incubated for 18 hrs; type: functional
Pseudomonas aeruginosa = assay: Antimicrobial activity against Pseudomonas aeruginosa ATCC 27853 assessed as growth inhibition incubated for 18 hrs; type: functional
Klebsiella pneumoniae = assay: Antimicrobial activity against multidrug-resistant Klebsiella pneumoniae ATCC 700603 assessed as growth inhibition incubated for 18 hrs; type: functional
Acinetobacter baumannii = assay: Antimicrobial activity against Acinetobacter baumannii ATCC 19606 assessed as growth inhibition incubated for 18 hrs; type: functional
Escherichia coli [11] = assay: Antimicrobial activity against Escherichia coli ATCC 25922 assessed as growth inhibition incubated for 18 hrs; type: functional
Candida albicans = assay: Antifungal activity against Candida albicans ATCC 90028 assessed as growth inhibition incubated for 36 hrs; type: functional; settings: 28A ATCC 90028
Cryptococcus neoformans = assay: Antifungal activity against Cryptococcus neoformans H99 ATCC 208821 assessed as growth inhibition incubated for 36 hrs; type: functional; settings: var. grubii H99 ATCC 208821
[12] = Cytotoxicity against human HEK-293 cells incubated for 23 hrs by CO-ADD method; type: cell-based, HEK293
[13] = Hemolytic activity in sheep RBC assessed as hemolysis at 5 microg/ml incubated for 2 hrs by CO-ADD method; type: ADME, cell-based, Ovis aries, Erythrocyte; settings: red blood cells (erythrocytes), at 5 µg/mL, read-out: Activity
[14] = Hemolytic activity in sheep RBC assessed as hemolysis at 50 microg/ml incubated for 2 hrs; type: ADME, cell-based, Ovis aries, Erythrocyte; settings: red blood cells (erythrocytes), at 50 µg/mL, read-out: Activity
[15] = Cytotoxicity against human HEK-293 cells assessed as maximal inhibition at <= 32 ug/ml incubated for 23 hrs by CO-ADD method; type: cell-based, HEK293; settings: dose <=32 µg/ml, read-out: Imax
[16] = Hemolytic activity in human RBC assessed as maximal hemolysis at <= 32 ug/ml incubated for 1 hr by CO-ADD method; type: cell-based, Erythrocyte; settings: red blood cells (erythrocytes), dose <=32 µg/ml, read-out: Activity

CC(C)(C)c1ccc(CC(N)C(=O)NC(CCCNC(=N)N)C(=O)Nc2cc(NC(=O)C(CCCNC(=N)N)NC(=O)C(N)Cc3ccc(C(C)(C)C)cc3)cc(C(N)=O)c2)cc1 (centres undefined) showed an MIC (Staphylococcus aureus [1]) of 3.9 µg/mL (≈ 4.48 µM) and an HC50 at 1 h [2] greater than 100 µg/mL.

Molecule CC(C)CCOc1ccccc1-c1ccccc1OCc1cn(C[C@@H](CCCCN)NC(=O)[C@@H](CCCNC(=N)N)n2cc(CC3CCCCC3)nn2)nn1.Cl.Cl has an MIC (Staphylococcus aureus [1]) of 2 µg/mL, an MIC (Staphylococcus aureus [3]) of 2 µg/mL and an MIC (Staphylococcus aureus [4]) of 4 µg/mL. It also gave an MIC (Enterococcus faecalis [5]) of 4 µg/mL, an MIC (Enterococcus faecalis [6]) of 8 µg/mL and an MIC (Streptococcus pneumoniae) of 1 µg/mL. For the same molecule, the MIC (Escherichia coli [7]) was 4 µg/mL, the MIC (Clostridioides difficile [8]) was 16 µg/mL and the MIC (Clostridioides difficile [9]) was 8 µg/mL. The MIC80 (Staphylococcus aureus [10]) was no more than 0.25 µg/mL, the MIC80 (Pseudomonas aeruginosa) was 16 µg/mL and the MIC80 (Klebsiella pneumoniae) was 32 µg/mL. For the same molecule, the MIC80 (Acinetobacter baumannii) was 16 µg/mL, the MIC80 (Escherichia coli [11]) was 8 µg/mL and the MIC80 (Candida albicans) was 32 µg/mL. For the same molecule, the MIC80 (Cryptococcus neoformans) was greater than 32 µg/mL, the CC50 at 23 h [12] was greater than 32 µg/mL and the HC50 at 1 h [2] was greater than 32 µg/mL. The hemolysis at 2 h, 5 microg/ml [13] was 2.1%, the hemolysis at 2 h, 50 microg/ml [14] was 66.6% and the Emax at 23 h [15] was 14%. It also gave a hemolysis at 1 h [16] of 56%.

CC(C)CCOc1cccc(-c2cccc(OCc3cn(C[C@@H](CCCCN)NC(=O)[C@@H](CCCNC(=N)N)n4cc(CC5CCCCC5)nn4)nn3)c2)c1.Cl.Cl gave an MIC (Staphylococcus aureus [1]) of 4 µg/mL, an MIC (Staphylococcus aureus [3]) of 4 µg/mL and an MIC (Staphylococcus aureus [4]) of 4 µg/mL. The MIC (Enterococcus faecalis [5]) was 4 µg/mL, the MIC (Enterococcus faecalis [6]) was 8 µg/mL and the MIC (Streptococcus pneumoniae) was 2 µg/mL. It also gave an MIC (Escherichia coli [7]) of 4 µg/mL, an MIC (Clostridioides difficile [8]) of 16 µg/mL and an MIC (Clostridioides difficile [9]) of 16 µg/mL. It also gave an MIC80 (Staphylococcus aureus [10]) of no more than 0.25 µg/mL, an MIC80 (Pseudomonas aeruginosa) of 32 µg/mL and an MIC80 (Klebsiella pneumoniae) greater than 32 µg/mL. The MIC80 (Acinetobacter baumannii) was 32 µg/mL, the MIC80 (Escherichia coli [11]) was 32 µg/mL and the MIC80 (Candida albicans) was 8 µg/mL. For the same molecule, the MIC80 (Cryptococcus neoformans) was greater than 32 µg/mL, the CC50 at 23 h [12] was 28.1 µg/mL and the HC50 at 1 h [2] was greater than 32 µg/mL. It also gave a hemolysis at 2 h, 5 microg/ml [13] of 3.7%, a hemolysis at 2 h, 50 microg/ml [14] of 76.7% and an Emax at 23 h [15] of 55%. The hemolysis at 1 h [16] was 94%.

CCCCCCCCCCCCCCCC1OC2C3CC(C2O1)C(C(=O)NCCNC(=N)N)C3C(=O)NCCNC(=N)N.Cl.Cl (centres undefined) gave an MIC (Staphylococcus aureus [10]) of 1 µg/mL and a CC50 at 23 h [12] greater than 50 µg/mL.

Work on CC(C)CCOc1cccc(-c2ccc(OCc3cn(C[C@@H](CCCCN)NC(=O)[C@@H](CCCNC(=N)N)n4cc(CC5CCCCC5)nn4)nn3)cc2)c1.Cl.Cl yielded an MIC (Staphylococcus aureus [1]) of 4 µg/mL, an MIC (Staphylococcus aureus [3]) of 4 µg/mL and an MIC (Staphylococcus aureus [4]) of 4 µg/mL. For the same molecule, the MIC (Enterococcus faecalis [5]) was 4 µg/mL, the MIC (Enterococcus faecalis [6]) was 16 µg/mL and the MIC (Streptococcus pneumoniae) was 4 µg/mL. It also gave an MIC (Escherichia coli [7]) of 16 µg/mL, an MIC (Clostridioides difficile [8]) of 32 µg/mL and an MIC (Clostridioides difficile [9]) of 16 µg/mL. It also gave an MIC80 (Staphylococcus aureus [10]) of no more than 0.25 µg/mL, an MIC80 (Pseudomonas aeruginosa) of 32 µg/mL and an MIC80 (Klebsiella pneumoniae) greater than 32 µg/mL. For the same molecule, the MIC80 (Acinetobacter baumannii) was 32 µg/mL, the MIC80 (Escherichia coli [11]) was 32 µg/mL and the MIC80 (Candida albicans) was 16 µg/mL. The MIC80 (Cryptococcus neoformans) was greater than 32 µg/mL, the CC50 at 23 h [12] was greater than 32 µg/mL and the HC50 at 1 h [2] was greater than 32 µg/mL. The hemolysis at 2 h, 5 microg/ml [13] was 2.1%, the hemolysis at 2 h, 50 microg/ml [14] was 40.8% and the Emax at 23 h [15] was 43%. It also gave a hemolysis at 1 h [16] of 88%.

In the case of CN[C@H](CC(C)C)C(=O)N[C@H]1C(=O)N[C@@H](CC(N)=O)C(=O)N[C@H]2C(=O)N[C@H]3C(=O)N[C@H](C(=O)N[C@H](C(=O)O)c4cc(O)cc(O)c4-c4cc3ccc4O)[C@H](O)c3ccc(c(Cl)c3)Oc3cc2cc(c3O[C@@H]2O[C@H](CO)[C@@H](O)[C@H](O)[C@H]2O[C@H]2C[C@](C)(N)[C@H](O)[C@H](C)O2)Oc2ccc(cc2Cl)[C@H]1O [VANCOMYCIN], the MIC (Staphylococcus aureus [4]) is reported as 8 µg/mL (≈ 5.52 µM), the MIC (Enterococcus faecalis [5]) is reported as 2 µg/mL (≈ 1.38 µM) and the MIC (Enterococcus faecalis [6]) is reported as greater than 8 µg/mL. For the same molecule, the MIC (Escherichia coli [7]) was greater than 8 µg/mL, the MIC (Clostridioides difficile [8]) was 1 µg/mL (≈ 0.69 µM) and the MIC (Clostridioides difficile [9]) was 0.5 µg/mL (≈ 0.345 µM). It also gave an MIC80 (Staphylococcus aureus [10]) of 1 µg/mL (≈ 0.69 µM).

For CC(C)CCOc1ccc(-c2cccc(OCc3cn(C[C@@H](CCCCN)NC(=O)[C@@H](CCCNC(=N)N)n4cc(CC5CCCCC5)nn4)nn3)c2)cc1.Cl.Cl, the MIC (Staphylococcus aureus [1]) was 4 µg/mL, the MIC (Staphylococcus aureus [3]) was 8 µg/mL and the MIC (Staphylococcus aureus [4]) was 2 µg/mL. The MIC (Enterococcus faecalis [5]) was 4 µg/mL, the MIC (Enterococcus faecalis [6]) was 8 µg/mL and the MIC (Streptococcus pneumoniae) was 2 µg/mL. For the same molecule, the MIC (Escherichia coli [7]) was 32 µg/mL, the MIC (Clostridioides difficile [8]) was 16 µg/mL and the MIC (Clostridioides difficile [9]) was 16 µg/mL. For the same molecule, the MIC80 (Staphylococcus aureus [10]) was no more than 0.25 µg/mL, the MIC80 (Pseudomonas aeruginosa) was 16 µg/mL and the MIC80 (Klebsiella pneumoniae) was 32 µg/mL. For the same molecule, the MIC80 (Acinetobacter baumannii) was 32 µg/mL, the MIC80 (Escherichia coli [11]) was 8 µg/mL and the MIC80 (Candida albicans) was 8 µg/mL. For the same molecule, the MIC80 (Cryptococcus neoformans) was greater than 32 µg/mL, the CC50 at 23 h [12] was greater than 32 µg/mL and the HC50 at 1 h [2] was greater than 32 µg/mL. The hemolysis at 2 h, 5 microg/ml [13] was 2.3%, the hemolysis at 2 h, 50 microg/ml [14] was 66.5% and the Emax at 23 h [15] was 18%. It also gave a hemolysis at 1 h [16] of 102%.
